Results from US12077503B2, “Substituted cyclic amides and their use as herbicides” (FMC CORPORATION, priority 2015, dated 2024).

Columns and labels:
Type in all cases: in vivo
[1] = test system: sedge, umbrella (small-flower umbrella sedge, Cyperus difformis); experiment: Test B flooded paddy test; conditions: Cyperus difformis, 250 g ai/ha, Flood; 0 to 100 scale where 0 is no effect and 100 is complete control; read-out: Sedge, Umbrella plant response rating
How it was run: (§1)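 Rating scale 0–100 (visual, vs untreated controls) after a 13–15 d greenhouse period; application to the flood layer, 3 cm above soil and maintained; plants at 2-leaf stage when treated.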

[2] = test system: ducksalad (Heteranthera limosa); experiment: Test B flooded paddy test; conditions: Heteranthera limosa, 250 g ai/ha, Flood; 0 to 100 scale where 0 is no effect and 100 is complete control; read-out: Ducksalad plant response rating
How it was run: as §1

rice (Oryra sativa) = experiment: Test B flooded paddy test; conditions: Oryza sativa, 250 g ai/ha, Flood; 0 to 100 scale where 0 is no effect and 100 is complete control; read-out: Rice plant response rating
How it was run: as §1

[3] = test system: barnyardgrass (Echinochloa crus-galli); experiment: Test B flooded paddy test; conditions: Echinochloa crus-galli, 250 g ai/ha, Flood; 0 to 100 scale where 0 is no effect and 100 is complete control; read-out: Barnyardgrass plant response rating
How it was run: as §1

[4] = test system: ragweed (common ragweed, Ambrosia elatior); experiment: Test A postemergence; conditions: Ambrosia artemisiifolia, post-emergence, 240 h, read-out: Plant response rating, Ragweed
How it was run: (§2)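 Ratings of 0 (no effect) to 100 (complete control) come from visual comparison with untreated controls roughly 10 d after treatment. Test chemicals, formulated in a non-phytotoxic solvent mixture with surfactant, were applied either as a preemergence directed soil spray on seeded soil or postemergence to one- to two-leaf plants 2 to 10 cm tall.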

corn (Zea mays) = experiment: Test A postemergence; conditions: Zea mays, post-emergence, 240 h
How it was run: as §2

[5] = test system: ryegrass, Italian (Italian ryegrass, Lolium multiflorum); experiment: Test A postemergence; conditions: Lolium multiflorum, post-emergence, 240 h, read-out: Plant response rating, Ryegrass, Italian
How it was run: as §2

[6] = test system: wheat (Triticum aestivum); experiment: Test A postemergence; conditions: Triticum aestivum, post-emergence, 240 h, read-out: Plant response rating, Wheat
How it was run: as §2

[7] = test system: blackgrass (Alopecurus myosuroides); experiment: Test A postemergence; conditions: Alopecurus myosuroides, post-emergence, 240 h, read-out: Plant response rating, Blackgrass
How it was run: as §2

[8] = test system: barnyardgrass (Echinochloa crus-galli); experiment: Test A postemergence; conditions: Echinochloa crus-galli, post-emergence, 240 h, read-out: Plant response rating, Barnyardgrass
How it was run: as §2

[9] = test system: Galium (catchweed bedstraw, Galium aparine); experiment: Test A postemergence; conditions: Galium, post-emergence, 240 h, read-out: Plant response rating, Galium
How it was run: as §2

[10] = test system: pigweed (Amaranthus retroflexus); experiment: Test A postemergence; conditions: Amaranthus retroflexus, post-emergence, 240 h, read-out: Plant response rating, Pigweed
How it was run: as §2

Kochia (Kochia scoparia) [11] = experiment: Test A postemergence; conditions: Bassia scoparia, post-emergence, 240 h, read-out: Plant response rating, Kochia
How it was run: as §2

[12] = test system: giant foxtail (Setaria faberii); experiment: Test A postemergence; conditions: Setaria faberi, post-emergence, 240 h, read-out: Plant response rating, Foxtail, Giant
How it was run: as §2

[13] = test system: ragweed (common ragweed, Ambrosia elatior); experiment: Test A preemergence; conditions: Ambrosia artemisiifolia, pre-emergence, 240 h
How it was run: as §2

[14] = test system: ryegrass, Italian (Italian ryegrass, Lolium multiflorum); experiment: Test A preemergence; conditions: Lolium multiflorum, pre-emergence, 240 h
How it was run: as §2

[15] = test system: barnyardgrass (Echinochloa crus-galli); experiment: Test A preemergence; conditions: Echinochloa crus-galli, pre-emergence, 240 h
How it was run: as §2

[16] = test system: pigweed (Amaranthus retroflexus); experiment: Test A preemergence; conditions: Amaranthus retroflexus, pre-emergence, 240 h
Kochia (Kochia scoparia) [17] = experiment: Test A preemergence; conditions: Bassia scoparia, pre-emergence, 240 h
How it was run: as §2

[18] = test system: giant foxtail (Setaria faberii); experiment: Test A preemergence; conditions: Setaria faberi, pre-emergence, 240 h
How it was run: as §2

[19] = 125 g ai/ha, Postemergence, visual injury after approximately 10 d, 0 to 100 scale where 0 is no effect and 100 is complete control
[20] = 500 g ai/ha, postemergence, visual injury, 0 to 100 scale (0 no effect, 100 complete control), approx. 10 d

Cc1ccc([C@H]2CN(C)C(=O)[C@@H]2C(=O)Nc2ccccc2S(C)(=O)=O)cc1Cl [Compound 1018]
50%: plant injury at 500 g/ha [6, 20] | pest or weed control at 500 g/ha [7, 20] | pest or weed control at 500 g/ha (Kochia (Kochia scoparia) [11]; [20])
40%: pest or weed control at 500 g/ha ([13]; 500 g ai/ha, preemergence, visual injury rating about 10 d after treatment, 0 to 100 scale (0 no effect, 100 complete control), read-out: Ragweed plant response rating)
65%: pest or weed control at 250 g/ha [3]
60%: pest or weed control at 500 g/ha [5, 20] | pest or weed control at 500 g/ha [9, 20] | pest or weed control at 500 g/ha [10, 20] | pest or weed control at 500 g/ha (Kochia (Kochia scoparia) [17]; 500 g ai/ha, preemergence, visual injury rating about 10 d after treatment, 0 to 100 scale (0 no effect, 100 complete control), read-out: Kochia plant response rating)
80%: pest or weed control at 500 g/ha ([16]; 500 g ai/ha, preemergence, visual injury rating about 10 d after treatment, 0 to 100 scale (0 no effect, 100 complete control), read-out: Pigweed plant response rating)
70%: Corn plant response rating (crop injury, 0 = no effect, 100 = complete kill) at 125 g/ha (corn (Zea mays); [19]) | pest or weed control at 500 g/ha ([14]; 500 g ai/ha, preemergence, visual injury rating about 10 d after treatment, 0 to 100 scale (0 no effect, 100 complete control), read-out: Ryegrass, Italian plant response rating)
0%: pest or weed control at 250 g/ha [1] | pest or weed control at 250 g/ha (rice (Oryra sativa)) | pest or weed control at 125 g/ha [4, 19] | pest or weed control at 125 g/ha [7, 19] | pest or weed control at 125 g/ha ([13]; 125 g ai/ha, Preemergence, visual injury rating after approximately 10 d, read-out: Ragweed plant response rating (0 to 100 scale, 0 is no effect, 100 is complete control)) | pest or weed control at 125 g/ha ([14]; 125 g ai/ha, Preemergence, visual injury rating after approximately 10 d, read-out: Ryegrass, Italian plant response rating (0 to 100 scale, 0 is no effect, 100 is complete control)) | pest or weed control at 125 g/ha (Kochia (Kochia scoparia) [17]; 125 g ai/ha, Preemergence, visual injury rating after approximately 10 d, read-out: Kochia plant response rating (0 to 100 scale, 0 is no effect, 100 is complete control))
90%: pest or weed control at 250 g/ha [2] | Corn plant response rating (crop injury, 0 = no effect, 100 = complete kill) at 500 g/ha (corn (Zea mays); [20]) | pest or weed control at 125 g/ha [8, 19] | pest or weed control at 500 g/ha [8, 20] | pest or weed control at 125 g/ha [12, 19] | pest or weed control at 500 g/ha [12, 20] | pest or weed control at 125 g/ha ([15]; 125 g ai/ha, Preemergence, visual injury rating after approximately 10 d, read-out: Barnyardgrass plant response rating (0 to 100 scale, 0 is no effect, 100 is complete control)) | pest or weed control at 500 g/ha ([15]; 500 g ai/ha, preemergence, visual injury rating about 10 d after treatment, 0 to 100 scale (0 no effect, 100 complete control), read-out: Barnyardgrass plant response rating) | pest or weed control at 125 g/ha ([18]; 125 g ai/ha, Preemergence, visual injury rating after approximately 10 d, read-out: Foxtail, Giant plant response rating (0 to 100 scale, 0 is no effect, 100 is complete control)) | pest or weed control at 500 g/ha ([18]; 500 g ai/ha, preemergence, visual injury rating about 10 d after treatment, 0 to 100 scale (0 no effect, 100 complete control), read-out: Foxtail, Giant plant response rating)
30%: pest or weed control at 500 g/ha [4, 20] | pest or weed control at 125 g/ha [5, 19] | plant injury at 125 g/ha [6, 19] | pest or weed control at 125 g/ha [9, 19] | pest or weed control at 125 g/ha [10, 19] | pest or weed control at 125 g/ha (Kochia (Kochia scoparia) [11]; [19]) | pest or weed control at 125 g/ha ([16]; 125 g ai/ha, Preemergence, visual injury rating after approximately 10 d, read-out: Pigweed plant response rating (0 to 100 scale, 0 is no effect, 100 is complete control))
